# Assay results reported in article PMC3723409 (Basic & clinical pharmacology & toxicology, 2009).
# Read-outs that look alike come from different tables or passages of the source.
# Key:
# [1] = with lopinavir/ritonavir; cited from earlier work
# [2] = in vivo interaction with buprenorphine; cited from earlier work
# [3] = human, in vivo
SMILES,Effect on pharmacokinetics / metabolism of buprenorphine [2],also measured
C[C@H](Cn1cnc2c(N)ncnc21)OCP(=O)(O)O [tenofovir],–,Change in renal clearance [1]: decrease
CC(C)c1nc(CN(C)C(=O)N[C@H](C(=O)N[C@@H](Cc2ccccc2)C[C@H](O)[C@H](Cc2ccccc2)NC(=O)OCc2cncs2)C(C)C)cs1 [ritonavir],increased exposure to buprenorphine,–
Cc1c(O)cccc1C(=O)N[C@@H](CSc1ccccc1)[C@H](O)CN1C[C@H]2CCCC[C@H]2C[C@H]1C(=O)NC(C)(C)C [nelfinavir],neither nelfinavir nor the combination of lopinavir/ritonavir had any significant effect,–
"CO[C@]12CC[C@@]3(C[C@@H]1[C@](C)(O)C(C)(C)C)[C@H]1Cc4ccc(O[C@@H]5O[C@H](C(=O)O)[C@@H](O)[C@H](O)[C@H]5O)c5c4[C@@]3(CCN1CC1CC1)[C@H]2O5 [B3G, buprenorphine-3-glucuronide]",–,Change in renal clearance [3]: No significant changes
CC(C)Nc1cccnc1N1CCN(C(=O)c2cc3cc(NS(C)(=O)=O)ccc3[nH]2)CC1 [delavirdine],inhibition of buprenorphine metabolism,–
O=C1Nc2ccc(Cl)cc2[C@@](C#CC2CC2)(C(F)(F)F)O1 [efavirenz],induction,–
